Measurements as given in patent US20150374673A1, “Combination Therapy for the Treatment of Nosocomial Pneumonia” (priority 2013, published 2015).

Tests used:
Penetration to human ELF = type: in vivo; settings: epithelial lining fluid (ELF)
E. coli = assay: Checkerboard assay, mean FICI; type: cell-based
Protocol: (§1) All MIC determinations including those performed in the checkerboard assay were done in cation-adjusted Mueller-Hinton broth (purchased from Becton Dickinson, Oxford UK).
(§2) Initial MIC data were determined by microbroth dilution methods as recommended by CLSI (2012b). Checkerboards were made in accordance with the method given by Pillai et. al., ? Antimicrobial Combinations in Antibiotics, LABORATORY MEDICINE (Lorian Ed., 3rd Ed. (2003)) p. 365-440 as per standard microbroth dilution tests but with agents in combination. […] A final avibactam concentration of 4 mg/L was used throughout the study. Antibacterial agents were combined into microtitre plates using the Evolution III liquid handling system.
(§3) Checkerboard plates were inoculated and incubated in accordance with CLSI guidelines (2012b) at 35±2° C. in ambient air for 16-20 h. MICs were recorded the following day as the lowest concentration or combination of concentrations required to inhibit all visible growth. From the MIC data, FICIs were calculated for each checkerboard according to the method of Meletiadis et. al., Defining Fractional Inhibitory Concentration Index Cutoffs for Additive Interactions Based on Self-Drug Additive Combinations, Monte Carlo Simulation Analysis and in vitro-in vivo Correlation Data for Antifungal Drug Combinations Against Aspergillus fumigatus, AAC 54:602-09 (2010).
(§4) FICI=FICA+FICB=(CA/MICA)+(CB/MICB)
(§5) As each checkerboard gives a number of FICI values, an arithmetic mean is calculated from all values to give the mean FICI for two agents combined against one isolate. Mean FICIs were interpreted by the following criteria given by Odds (2003) which are now the accepted criteria by most journals: […]

E. cloacae = assay: Checkerboard assay, mean FICI; type: cell-based
Protocol: as §1, §2, §3, §4, §5

S. aureus = assay: Checkerboard assay, mean FICI; type: cell-based
Protocol: as §1, §2, §3, §4, §5

K. pneumoniae = assay: Checkerboard assay, mean FICI; type: cell-based
Protocol: as §1, §2, §3, §4, §5

E. faecalis = assay: Checkerboard assay, mean FICI; type: cell-based
Protocol: as §1, §2, §3, §4, §5

P. aeruginosa = assay: Checkerboard assay, mean FICI; type: cell-based
Protocol: as §1, §2, §3, §4, §5

**Q.** With `NC(=O)[C@@H]1CC[C@@H]2CN1C(=O)N2OS(=O)(=O)[O-].[Na+]` [avibactam, [(2S,5R)-2-carbamoyl-7-oxo-1,6-diazabicyclo[3.2.1]octan-6-yl]hydrogen sulfate] as the compound, how does the Kp (Penetration to human ELF) read?
**A.** ~0.3

**Q.** What does the source list for `CC(C)(O/N=C(\C(=O)N[C@@H]1C(=O)N2C(C(=O)[O-])=C(C[n+]3ccccc3)CS[C@H]12)c1csc(N)n1)C(=O)O` [ceftazidime, (6R,7R)-7-[[(2Z)-2-(2-amino-1,3-thiazol-4-yl)-2-(1-hydroxy-2-methyl-1-oxopropan-2-yl)oxyiminoacetyl]amino]-8-oxo-3-(pyridin-1-ium-1-ylmethyl)-5-thia-1-azabicyclo[4.2.0]oct-2-ene-2-carboxylate pentahydrate]?
**A.** Mean FICI (E. coli; with Col, isolate 4 E. coli Basal MICs): 1.35; Mean FICI (E. coli; with Col, isolate 5 E. coli CTX-M-15): 1.23; Mean FICI (E. coli; with Col, isolate 6 E. coli TEM-4): 1.26; Mean FICI (E. coli; with Col, isolate 7 E. coli SHV-12): 1.66; Mean FICI (E. coli; with Col, isolate 8 E. coli SHV-2): 1.54; Mean FICI (E. coli; with Lev, isolate 5 E. coli CTX-M-15): 1.05; Mean FICI (E. coli; with Lev, isolate 6 E. coli TEM-4): 1.05; Mean FICI (E. coli; with Lev, isolate 7 E. coli SHV-12): 1.18; Mean FICI (E. coli; with Lev, isolate 8 E. coli SHV-2): 1.11; Mean FICI (E. coli; with Tig, isolate 4 E. coli Basal MICs): 1.41; Mean FICI (E. coli; with Tig, isolate 5 E. coli CTX-M-15): 1.12; Mean FICI (E. coli; with Tig, isolate 6 E. coli TEM-4): 1.27; Mean FICI (E. coli; with Tig, isolate 7 E. coli SHV-12): 0.95; Mean FICI (E. coli; with Tig, isolate 8 E. coli SHV-2): 1.10; Mean FICI (E. coli; with Tob, isolate 5 E. coli CTX-M-15): 1.05; Mean FICI (E. coli; with Tob, isolate 6 E. coli TEM-4): 0.99; Mean FICI (E. coli; with Tob, isolate 7 E. coli SHV-12): 1.19; Mean FICI (E. coli; with Tob, isolate 8 E. coli SHV-2): 0.91; Mean FICI (E. cloacae; with Col, isolate 2 E. cloacae Derepressed AmpC): 1.54; Mean FICI (E. cloacae; with Col, isolate 3 E. cloacae Derepressed AmpC): 1.12; Mean FICI (E. cloacae; with Lev, isolate 2 E. cloacae Derepressed AmpC): 0.99; Mean FICI (E. cloacae; with Lev, isolate 3 E. cloacae Derepressed AmpC): 0.81; Mean FICI (E. cloacae; with Tig, isolate 2 E. cloacae Derepressed AmpC): 0.93; Mean FICI (E. cloacae; with Tig, isolate 3 E. cloacae Derepressed AmpC): 1.05; Mean FICI (E. cloacae; with Tob, isolate 3 E. cloacae Derepressed AmpC): 0.73; Mean FICI (S. aureus; with Lev, isolate 22 S. aureus Basal MICs): 0.98; Mean FICI (S. aureus; with Lev, isolate 23 S. aureus Basal MICs, Penicillinase+): 1.46; Mean FICI (S. aureus; with Lev, isolate 24 S. aureus Basal MICs, Penicillinase +): 1.21; Mean FICI (S. aureus; with Lzd, isolate 22 S. aureus Basal MICs): 1.43; Mean FICI (S. aureus; with Lzd, isolate 23 S. aureus Basal MICs, Penicillinase+): 1.10; Mean FICI (S. aureus; with Lzd, isolate 24 S. aureus Basal MICs, Penicillinase +): 1.32; Mean FICI (S. aureus; with Tig, isolate 22 S. aureus Basal MICs): 1.13; Mean FICI (S. aureus; with Tig, isolate 23 S. aureus Basal MICs, Penicillinase+): 1.27; Mean FICI (S. aureus; with Tig, isolate 24 S. aureus Basal MICs, Penicillinase +): 1.11; Mean FICI (S. aureus; with Tob, isolate 22 S. aureus Basal MICs): 1.60; Mean FICI (S. aureus; with Tob, isolate 23 S. aureus Basal MICs, Penicillinase+): 0.86; Mean FICI (S. aureus; with Tob, isolate 24 S. aureus Basal MICs, Penicillinase +): 0.84; Mean FICI (S. aureus; with Van, isolate 22 S. aureus Basal MICs): 1.23; Mean FICI (S. aureus; with Van, isolate 23 S. aureus Basal MICs, Penicillinase+): 0.99; Mean FICI (S. aureus; with Van, isolate 24 S. aureus Basal MICs, Penicillinase +): 1.24; Mean FICI (K. pneumoniae; with Col, isolate 10 K. pneumoniae TEM-4): 0.85; Mean FICI (K. pneumoniae; with Col, isolate 11 K. pneumoniae CTX-M-15): 1.54; Mean FICI (K. pneumoniae; with Col, isolate 12 K. pneumoniae SHV-12): 1.40; Mean FICI (K. pneumoniae; with Col, isolate 14 K. pneumoniae KPC-3): 1.05; Mean FICI (K. pneumoniae; with Lev, isolate 9 K. pneumoniae Basal MICs): 0.96; Mean FICI (K. pneumoniae; with Lev, isolate 10 K. pneumoniae TEM-4): 1.13; Mean FICI (K. pneumoniae; with Tig, isolate 11 K. pneumoniae CTX-M-15): 0.94; Mean FICI (K. pneumoniae; with Tig, isolate 12 K. pneumoniae SHV-12): 0.97; Mean FICI (K. pneumoniae; with Tig, isolate 13 K. pneumoniae KPC-3): 1.99; Mean FICI (K. pneumoniae; with Tig, isolate 14 K. pneumoniae KPC-3): 0.74; Mean FICI (K. pneumoniae; with Tob, isolate 9 K. pneumoniae Basal MICs): 1.55; Mean FICI (K. pneumoniae; with Tob, isolate 10 K. pneumoniae TEM-4): 0.64; Mean FICI (K. pneumoniae; with Tob, isolate 11 K. pneumoniae CTX-M-15): 1.05; Mean FICI (K. pneumoniae; with Tob, isolate 12 K. pneumoniae SHV-12): 1.04; Mean FICI (K. pneumoniae; with Tob, isolate 13 K. pneumoniae KPC-3): 1.12; Mean FICI (K. pneumoniae; with Tob, isolate 14 K. pneumoniae KPC-3): 0.91; Mean FICI (K. pneumoniae; with Tob, isolate 15 K. pneumoniae KPC-2): 1.05; Mean FICI (E. faecalis; with Lev, isolate 25 E. faecalis Basal MICs): 1.15; Mean FICI (E. faecalis; with Lev, isolate 26 E. faecalis Basal MICs): 1.20; Mean FICI (E. faecalis; with Lev, isolate 27 E. faecalis Basal MICs): 0.78; Mean FICI (E. faecalis; with Lzd, isolate 25 E. faecalis Basal MICs): 1.72; Mean FICI (E. faecalis; with Lzd, isolate 26 E. faecalis Basal MICs): 0.99; Mean FICI (E. faecalis; with Lzd, isolate 27 E. faecalis Basal MICs): 1.64; Mean FICI (E. faecalis; with Tig, isolate 25 E. faecalis Basal MICs): 1.19; Mean FICI (E. faecalis; with Tig, isolate 26 E. faecalis Basal MICs): 0.73; Mean FICI (E. faecalis; with Tig, isolate 27 E. faecalis Basal MICs): 1.16; Mean FICI (E. faecalis; with Tob, isolate 25 E. faecalis Basal MICs): 0.84; Mean FICI (E. faecalis; with Tob, isolate 26 E. faecalis Basal MICs): 0.74; Mean FICI (E. faecalis; with Tob, isolate 27 E. faecalis Basal MICs): 0.99; Mean FICI (E. faecalis; with Van, isolate 25 E. faecalis Basal MICs): 1.63; Mean FICI (E. faecalis; with Van, isolate 26 E. faecalis Basal MICs): 1.18; Mean FICI (E. faecalis; with Van, isolate 27 E. faecalis Basal MICs): 1.38; Mean FICI (P. aeruginosa; with Col, isolate 16 P. aeruginosa Basal MICs): 1.24; Mean FICI (P. aeruginosa; with Col, isolate 17 P. aeruginosa Derepressed AmpC): 1.21; Mean FICI (P. aeruginosa; with Col, isolate 18 P. aeruginosa Derepressed AmpC): 1.23; Mean FICI (P. aeruginosa; with Col, isolate 19 P. aeruginosa PER): 1.43; Mean FICI (P. aeruginosa; with Col, isolate 20 P. aeruginosa KPC-2): 1.21; Mean FICI (P. aeruginosa; with Col, isolate 21 P. aeruginosa KPC-2): 1.34; Mean FICI (P. aeruginosa; with Lev, isolate 16 P. aeruginosa Basal MICs): 1.19; Mean FICI (P. aeruginosa; with Lev, isolate 17 P. aeruginosa Derepressed AmpC): 1.10; Mean FICI (P. aeruginosa; with Lev, isolate 18 P. aeruginosa Derepressed AmpC): 1.21; Mean FICI (P. aeruginosa; with Lev, isolate 19 P. aeruginosa PER): 0.99; Mean FICI (P. aeruginosa; with Lev, isolate 20 P. aeruginosa KPC-2): 1.13; Mean FICI (P. aeruginosa; with Lev, isolate 21 P. aeruginosa KPC-2): 1.12; Mean FICI (P. aeruginosa; with Tig, isolate 16 P. aeruginosa Basal MICs): 1.05; Mean FICI (P. aeruginosa; with Tig, isolate 17 P. aeruginosa Derepressed AmpC): 1.23; Mean FICI (P. aeruginosa; with Tig, isolate 18 P. aeruginosa Derepressed AmpC): 1.15; Mean FICI (P. aeruginosa; with Tig, isolate 19 P. aeruginosa PER): 1.13; Mean FICI (P. aeruginosa; with Tig, isolate 20 P. aeruginosa KPC-2): 1.40; Mean FICI (P. aeruginosa; with Tig, isolate 21 P. aeruginosa KPC-2): 1.23; Mean FICI (P. aeruginosa; with Tob, isolate 16 P. aeruginosa Basal MICs): 1.11; Mean FICI (P. aeruginosa; with Tob, isolate 17 P. aeruginosa Derepressed AmpC): 1.05; Mean FICI (P. aeruginosa; with Tob, isolate 18 P. aeruginosa Derepressed AmpC): 0.89; Mean FICI (P. aeruginosa; with Tob, isolate 19 P. aeruginosa PER): 0.70; Mean FICI (P. aeruginosa; with Tob, isolate 20 P. aeruginosa KPC-2): 0.97; Mean FICI (P. aeruginosa; with Tob, isolate 21 P. aeruginosa KPC-2): 0.97
